# Assay results from patent publication US9528982B2, “Bad phosphorylation determines ovarian cancer chemo-sensitivity and patient survival” (H. Lee Moffitt Cancer Center and Research Institute, Inc., priority 2011, dated 2016).
# Assays:
# [1] = test system: OVCA cell lines (A2780S, A2780CP, A2008, C13); experiment: CellTiter-96 MTS proliferation assay quantifying cisplatin-resistance after serial cisplatin treatment; format: cell-based; details: cells after serial in vitro cisplatin-treatment/expansion cycles vs cells prior to serial cisplatin treatment
# From the text: FIGS. 3(A)-(D) are a series of graphs showing BAD-protein phosphorylation is associated with platinum resistance. Cisplatin EC50 so results and percent expression of phosphorylated-BAD at serine-155 (P-BAD155), non-phosphorylated BAD (NP-BAD155), total BAD, and PP2C (PPM1A) in (A) A2780S; (B) A2780CP; (C) A2008; and (D) C13 ovarian cancer cell lines measured by MTS and immunofluorescence, respectively.
# Cell lines were induced for platinum resistance. […] Both cisplatin-resistance and genome-wide expression changes were measured serially in each cell line at baseline and after 3 and 6 cisplatin-treatment/expansion cycles. Cisplatin-resistance was quantified using CellTiter-96 MTS proliferation assays (Thermo Fisher Scientific Inc., Waltham, Mass.) and analyzed genome-wide expression using Affymetrix Human U133 Plus 2.0 GeneChips (Affymetrix, Inc., Santa Clara, Calif.) as previously described (Boren, et al., MicroRNAs and their target messenger RNAs associated with ovarian cancer response to chemotherapy. Gynecol Oncol 2009; 113:249-255; Bild, et al., Oncogenic pathway signatures in human cancers as a guide to targeted therapies. Nature 2006; 439:353-357) (Gene Expression Omnibus (GEO) accession number GSE23553).
# [2] = test system: A2780S and A2780CP cells; experiment: Percent apoptotic nuclei after cisplatin treatment of transfected cells; format: cell-based
# Experimental: FIGS. 4(A)-(D) is a composite figure showing modulation of BAD-protein phosphorylation status influences cisplatin sensitivity. OVCA cell lines (A) A2780S and (B) A2780CP were transfected with Flag vectors expressing wild-type BAD (WT) or BAD harboring serine (S) to alanine point mutations in serine-112, -136, or -155(S112A, S136A, S155A). These S to A phosphorylation site mutations prevent phosphorylation of the BAD protein. Transfected cells were treated with vehicle or 1 μM (A2780S) or 10 μM (A2780CP) cisplatin for 48 hours and evaluated for the presence of apoptotic nuclei. (C) Western blot showing depletion of PP2C and PKA by siRNA. Controls included a non-targeting siRNA (NT). GAPDH was used as a loading control. (D) Percent apoptotic nuclei in A2780S cells in the presence of 1 μM cisplatin after siRNA depletion of PKA and PP2C. Error bars indicate standard error of the mean.
# Morphologic assessment of condensed chromatin and fragmented DNA quantified percent apoptotic nuclei. Cells were fixed in 4% paraformaldehyde, and nuclei were stained with bis-benzimide trihydrochloride (0.5 μg/ml; Molecular Probes) and quantified using fluorescence microscopy (Marchion, et al., Synergistic interaction between histone deacetylase and topoisomerase II inhibitors is mediated through topoisomerase IIbeta. Clin Cancer Res 2005; 11:8467-8475).
# Cells were transfected with siRNA drawn against different BAD pathway proteins. RNA duplexes for PP2C/PPM1A (s10909 from ABI), cAMP-dependent protein kinase (PKA; 6406 from Cell Signaling Technology, Inc., Danvers, Mass.), and vectors containing mutated BAD (pFlag-600) were transfected using the Nucleofector transfection kit, with non-targeting Silencer negative control #2 siRNA (Applied Biosystems, Inc., Foster City, Calif.), according to manufacturer's protocols (Amaxa GmbH, Koeln, Del.). The role of pBAD (serine-155) in cisplatin sensitivity was further evaluated in A2780S cells by depletion of PKA and PP2C/PPM1A using siRNA.
smiles,measurement,setting,value
"N.N.[Cl][Pt][Cl] [cisplatin, cis-diammine-dichloroplatinum]",cisplatin EC50,[1],higher cisplatin EC50 values
same,cisplatin-induced apoptosis,"[2]; A2780S and A2780CP transfected with BAD[S136A], BAD[S155A] vs wild-type BAD, 1 μM (A2780S) or 10 μM (A2780CP) cisplatin, 48 hours",increased cisplatin-induced apoptosis
same,cisplatin-induced apoptosis,"[2]; A2780S, siRNA depletion of PKA vs non-targeting control siRNA, 1 μM cisplatin",increased cisplatin-induced apoptosis
same,cisplatin-induced apoptosis,"[2]; A2780S, siRNA depletion of PP2C/PPM1A, 1 μM cisplatin",decreased cisplatin-induced apoptosis
same,cisplatin sensitivity,"[2]; cells transfected with BAD[S112A], 1 μM (A2780S) or 10 μM (A2780CP) cisplatin, 48 hours",no effect on cisplatin sensitivity
